Test system: Lewis lung carcinoma (LLC)
Test: Hypoxic state (hypoxyprobe-1/PIMO) and CD31 microvessel density by immunohistochemistry in LLC allograft tumor
Format: in vivo, C57BL/6J mouse
Conditions: 2 mg/kg intraperitoneal on day 2, 4, 6, 8, 10; tumor extracted day 17; vs PBS control; FIG. 1
Description: As a control, the same amount of phosphate buffered saline (PBS) was injected. In addition, to measure a hypoxic state inside the tumor on day 17, 60 mg/kg of hypoxyprobe-1™ (pimonidazole hydrochloride; PIMO, HPI) was administered by intraperitoneal injection, and after 90 minutes, the mouse was sacrificed to extract the tumor. In addition, immunohistochemistry (HC) analyses were performed using the obtained tumor tissue. More particularly, the obtained tumor was fixed with 3.7% paraformaldehyde (PFA) and then dehydrated by treatment with a 10 to 40% sucrose solution step by step. In addition, after increasing the osmotic permeability of cells by treatment with 0.3% Triton X-100 and blocking with 5% bovine serum albumin (BSA), a rat anti-CD31 (BD Biosciences) or Alexa Fluor 647-conjugated anti-HIF-1 alpha antibody (Abcam) was treated and reacted at 4° C. for 16 hours. The mouse treated with the HIF-1 alpha antibody was a mouse which was not treated with hypoxyprobe-1™. […] In addition, finally, a cell nucleus was stained with DAPI (Sigma-Aldrich) and observed using a confocal microscope, followed by quantifying a fluorescent value using ImageJ. […]

COc1ccc([C@@H](O)[C@@H](C)Oc2ccc([C@H]3O[C@H](c4ccc(O[C@H](C)[C@H](O)c5ccc(OC)c(OC)c5)c(OC)c4)[C@H](C)[C@H]3C)cc2OC)cc1OC [manassantin A]
hypoxic state inside the tumor: significantly reduced
microvessel density (MVD) of CD31-positive vascular endothelial cells: significantly reduced

Reference: patent publication US12648925B2, “Composition for preventing or treating cancer, containing manassantin A and immune checkpoint inhibitor or epithelial growth factor receptor inhibitor” (KYUNGPOOK NATIONAL UNIVERSITY INDUSTRY-ACADEMIC COOPERATION …, priority 2019, dated 2026)
